Data as given in ChEMBL document CHEMBL1128821, “Evaluation of differential hypoxic cytotoxicity and electrochemical studies of nitro 5-deazaflavins” (Bioorg Med Chem Lett, 1995).

Tests used:
V79 [1] = assay: Differential hypoxic cytotoxicity towards chinese hamster cells (V79) using MTT assay under anaerobic conditions; format: functional, cell-based; conditions: Cricetulus griseus
V79 [2] = assay: Differential hypoxic cytotoxicity towards chinese hamster cells (V79) using MTT assay under aerobic conditions; format: functional, cell-based; conditions: Cricetulus griseus

Compound | IC50 (V79 [1]) | IC50 (V79 [2])
CCCCCCCCCCCCn1c2nc(=O)n(C)c(=O)c-2cc2ccccc21 | > 1000 µM | > 1000 µM
CCCCCCCCCCCCn1c2nc(=O)n(C)c(=O)c-2cc2ccc([N+](=O)[O-])cc21 | 61 µM | 130 µM
CCCCCCCCCCCCn1c2nc(=O)[nH]c(=O)c-2cc2cccc([N+](=O)[O-])c21 | 3.6 µM | 1.9 µM
CCCCCCCCCCCCn1c2nc(=O)[nH]c(=O)c-2cc2ccccc21 | > 1000 µM | > 1000 µM
CCCCCCCCCCCCn1c2nc(=O)[nH]c(=O)c-2cc2cc([N+](=O)[O-])ccc21 | 22 µM | 16 µM
CCCCCCCCCCCCn1c2nc(=O)[nH]c(=O)c-2cc2c([N+](=O)[O-])cccc21 | 1.1 µM | 4.3 µM
CCCCCCCCCCCCn1c2nc(=O)n(C)c(=O)c-2cc2c([N+](=O)[O-])cccc21 | 2.9 µM | 7.2 µM
CCCCCCCCn1c2nc(=O)n(-c3ccccc3)c(=O)c-2cc2cccc([N+](=O)[O-])c21 | 3.7 µM | 1.7 µM
CCCCCCCCCCCCn1c2nc(=O)n(C)c(=O)c-2cc2cccc([N+](=O)[O-])c21 | > 1000 µM | > 1000 µM
CCCCCCCCn1c2nc(=O)n(-c3ccccc3)c(=O)c-2cc2cc([N+](=O)[O-])ccc21 | 19 µM | 27 µM
CCCCCCCCn1c2nc(=O)n(-c3ccccc3)c(=O)c-2cc2ccc([N+](=O)[O-])cc21 | 1.2 µM | 6.1 µM
NC(=O)N/N=C/c1ccc([N+](=O)[O-])o1 [NITROFURAZONE] | 270 µM | 740 µM
CCCCCCCCCCCCn1c2nc(=O)[nH]c(=O)c-2cc2ccc([N+](=O)[O-])cc21 | 190 µM | 300 µM
CCCCCCCCn1c2nc(=O)n(-c3ccccc3)c(=O)c-2cc2ccccc21 | > 1000 µM | > 1000 µM
CCCCCCCCCCCCn1c2nc(=O)n(C)c(=O)c-2cc2cc([N+](=O)[O-])ccc21 | > 1000 µM | > 1000 µM
CCCCCCCCn1c2nc(=O)n(-c3ccccc3)c(=O)c-2cc2c([N+](=O)[O-])cccc21 | 0.56 µM | 3.6 µM
